{"source": "patent US6489308B1", "about": "“Inhibitors of serine protease activity, methods and compositions for treatment of nitric-oxide-induced clinical conditions” (Trustees of University of Technology Corporation, priority 1999, dated 2002)", "type_in_all_cases": "cell-based", "key": {"p-ERK": {"test_system": "p-ERK", "experiment": "Western blot of p-ERK (p42/p44 MAP kinase)", "conditions": "FIG. 5"}, "cytomegalovirus (CMV)": {"test_system": "cytomegalovirus (CMV)", "experiment": "Cytomegalovirus replication in infected RAW 264.5 macrophages", "conditions": "RAW 264.5 macrophages infected with CMV; FIG. 6"}, "iNOS protein": {"test_system": "iNOS protein", "experiment": "Western blot of iNOS protein induction by LPS and γ-interferon in macrophagic cells", "conditions": "γ-IFN and LPS, FIG. 2"}, "RAW 264.5 macrophages": {"test_system": "RAW 264.5 macrophages", "experiment": "NO release (nitrite, Greiss reagent) upon induction with LPS and γ-IFN in macrophagic cells", "conditions": "FIG. 1 / FIG. 4"}, "NF-κB": {"test_system": "NF-κB", "experiment": "Electrophoretic mobility shift assay of NF-κB induced by interleukin-18", "conditions": "incubation with IL-18, FIG. 3"}, "[1]": {"test_system": "herpes simplex virus (HSV)", "experiment": "Herpes simplex virus replication", "conditions": "FIG. 7"}}, "note": "“Also recorded” adds a separate entry of the source."}
{"molecule": "α1-antitrypsin: glycoprotein of MW 51,000 with 417 amino acids and 3 oligosaccharide side chains; naturally occurring serine protease inhibitor", "values": [{"measurement": "level and/or phosphorylation of p-ERK", "setting": "p-ERK", "value": "inhibits the level and/or phosphorylation of p-ERK"}, {"measurement": "CMV replication", "setting": "cytomegalovirus (CMV)", "value": "blocks CMV replication"}, {"measurement": "induction of iNOS protein", "setting": "iNOS protein", "value": "inhibits induction of iNOS protein"}, {"measurement": "NO levels induced by γ-IFN and LPS (measured as NO2-)", "setting": "RAW 264.5 macrophages", "value": "efficiently block γ-IFN- and LPS-induced NO synthesis; also recorded: inhibits NO levels"}, {"measurement": "induction of active NF-κB", "setting": "NF-κB", "value": "inhibit the induction of active NF-κB"}, {"measurement": "replication of HSV", "setting": "[1]", "value": "inhibits replication of HSV"}]}
{"molecule": "Cc1cccc(Cc2nnc(C(=O)C(NC(=O)[C@@H]3CCCN3C(=O)[C@@H](NC(=O)OCc3ccccc3)C(C)C)C(C)C)o2)c1", "note": "(stereo partly drawn) [CE-2072, benzyloxycarbonyl-L-valyl-N-[1-(2-[5-(3-methylbenzyl)-1,3,4-oxadiazolyl]carbonyl)-2-(S)-methylpropyl]-L-prolinamide, reference compound]", "values": [{"measurement": "NO levels induced by γ-IFN and LPS (measured as NO2-)", "setting": "RAW 264.5 macrophages", "value": "inhibits NO levels"}, {"measurement": "induction of active NF-κB", "setting": "NF-κB", "value": "inhibit the induction of active NF-κB"}]}
